Patent US20140256793A1, “MEDICAMENT FOR DISEASES ASSOCIATED WITH AMYLOID beta AND SCREENING THEREOF” (National University Corporation Hokkaido University, priority 2011, published 2014)

Experiments:
N2a cells = test: Measurement of exosome release from N2a cells after siRNA, C6-ceramide or bacterial SMase treatment (Western blot); format: cell-based, murine; settings: for exosome release / secretion after siRNA knockdown: Stealth RNAi siRNA, Western blot of exosome markers; for ratio of amount of Alix compared with a control: siRNA knockdown, exosome fraction
Method: (§1) As previously described (Thery C et al., Curr Protoc Cell Biol Chapter: Unit 3.22 (2006)), exosomes were prepared from culture supernatants of N2a and murine primary cultured cortical nerve cells. The culture medium was replaced with a serum-free medium on the day before the preparation of exosomes. The cell culture supernatants were collected after 24 hours and sequentially centrifuged at 3,000×g for 10 minutes, at 4,000×g for 10 minutes, and at 10,000×g for 30 minutes to remove cells, dead cells, and cell fragments, and then spun down again at 100,000×g for one hour to obtain exosomes as pellets.
(§2) Treatment with imipramine (10 μM), GW4869 (10 μM), D609 (50 μM) C6-ceramide (50 μM) or bacterial SMase (100 μU/ml) was performed for 24 hours in a serum-free medium.
For RNA-mediated interference (RNAi) experiments, the inventors used Stealth RNAi™ siRNA (Invitrogen) with the following sequences:
Stealth™ Control RNA was obtained from Invitrogen SiRNA was delivered according to the manufacturer's protocol by using a Lipofectamine™ transfection reagent (Invitrogen).
(§3) Exosome pellets purified from cultures of 5×10^6 cells were solubilized with Laemmli buffer (Laemmli U K, Nature (1970) 227: 680-685) and subjected to SDS-PAGE and Western blotting. Blots were probed with a primary antibody and then probed with an HRP-conjugated secondary antibody. Bands were detected and analyzed using a combination of an ECL Plus kit (GE Healthcare) and an LAS4000 (Fujifilm Corporation).

Aβ = test: Thioflavin T test of Aβ amyloid fibril formation with exosomes; format: biochemical, human; settings: exosomes from inhibitor- or siRNA-treated cells mixed with 25 μM Aβ42, five hours at 37° C.
Method: A seed-free Aβ solution was prepared essentially according to the previous report (Naiki H et al., Methods Enzymol (1999) 309: 305-318). Briefly stated, synthetic Aβ40 and Aβ42 were dissolved in a 0.02% ammonium solution at 500 μM and 300 μM, respectively. In order to remove undissolved Aβ aggregates that can act as pre-existing seeds, the prepared solution was centrifuged at 540,000×g for three hours at 4° C. The obtained supernatant was collected and stored at −80° C. until use.
Seed free Aβ (25 μM) was incubated in 100 μl of TBS comprising 0 μl, 1 μl, or 10 μl of exosome solution at 37° C. 1 μl of exosome solution was collected from culture supernatants of 1×10^6 cells. As described in the prior art document (Naiki H et al., Methods Enzymol (1999)309:305-318), fluorescence intensity of ThT in the mixture was measured using an Appliskan spectrofluorophotometer (Thermo Fisher Scientific). The optimal fluorescence intensities of amyloid fibrils were measured at an excitation wavelength of 446 nm and fluorescent wavelength of 490 nm by using a reaction mixture comprising 5 μM ThT and 50 mM glycine/NaOH with pH of 8.5.

N2a cells and BV-2 cells = test: Transwell experiment: N2a-APP cells with BV-2 cells, Aβ levels by ELISA; format: cell-based, murine; settings: for extracellular Aβ levels: no BV-2 cells on the lower wells, N2a-APP cells treated with siRNA
Method: Aβ40 and Aβ42 levels were measured by using a sandwich enzyme-linked immunosorbent assay (ELISA) kit from Wako. Aggregated Aβs both in medium and cells were solubilized with 4 M guanidine-HCl buffer for 2 hours at room temperature and then were subjected to ELISA. All samples were measured in duplicates.
(§4) N2a cells were cultured on 24-well plate inserts (0.5 μm pore, Costar) at 5×10^5 cells/cm^2 and then transfected with the APP770 plasmid simultaneously with siRNA for nSMase2 or SMS2 by using a Lipofectamine-2000. After 24 hours from the transfection, inserts were placed onto wells containing BV-2 cells. After an additional 24 hours of incubation, Aβ levels in the medium were measured by ELISA. Intracellular Aβ levels in BV-2 cells were also measured using ELISA after solubilization in guanidine HCl buffer as described above.

N2a-APP cells = test: Western blot of 100,000×g pellets from media of N2a-APP cells transfected with siRNA; format: cell-based, murine; settings: for levels of released exosomes, estimated by the amounts of Alix and Tsg101: siRNA knockdown
Method: as §3, §4

[1] = system: N2a cells and primary cultured nerve cells; test: Measurement of exosome release after drug treatment (Western blot of Alix, Tsg101, GM1 in 100,000×g pellets); format: cell-based, murine; settings: 24 hours in serum-free medium; imipramine 10 μM, GW4869 10 μM, D609 50 μM
Method: as §1, §2, §3

[2] = system: BV-2 cells or primary cultured microglia; test: Fluorescence staining and internalization assay of PKH26-labeled exosomes; format: cell-based, murine
[3] = system: BV-2 cells or primary cultured microglia; test: Aβ42 uptake into microglia (ELISA); format: cell-based, murine
[4] = in the presence of BV-2 cells in the lower wells, 24 hours

SMS2 siRNA: Stealth RNAi siRNA (Invitrogen) for SMS2, sense 5′-AUACAUAGUUAUACAGCGAUACAGG-3′ (antisense CCUGUAUCGCUGUAUAACUAUGUAU; commercial Stealth RNAi siRNA, chemistry not given here)
exosome release / secretion after siRNA knockdown (N2a cells): significant increases
ratio of amount of Alix compared with a control (N2a cells): 424.75±45.96%
Aβ fibrillogenesis (ThT fluorescence) by exosomes purified from treated cultures, compared with controls (Aβ): increased
Aβ levels in the BV-2 cells (N2a cells and BV-2 cells; compared with treatment with control RNA): significantly increased
level of Aβ40 in the culture media (N2a cells and BV-2 cells; [4]): significantly decreased
level of Aβ42 in the culture media (N2a cells and BV-2 cells; [4]): significantly decreased
extracellular Aβ levels (N2a cells and BV-2 cells): unchanged
Aβ in 100,000×g pellets (N2a-APP cells; Western blotting): detected
levels of released exosomes, estimated by the amounts of Alix and Tsg101 (N2a-APP cells): obviously modulated

CN(C)CCCN1c2ccccc2CCc2ccccc21 [imipramine]
levels of released exosomes (exosomal markers Alix, Tsg101, GM1 in 100,000×g pellets) [1]: did not change

aSMase siRNA: Stealth RNAi siRNA (Invitrogen) for aSMase, sense 5′-AUUGGUUUCCCUUUAUGAAGGGAGG-3′ (antisense CCUCCCUUCAUAAAGGGAAACCAAU; Commercial Stealth RNAi siRNA, modifications not given here)
exosome release / secretion after siRNA knockdown (N2a cells): did not change

O=C(/C=C/c1ccc(/C=C/C(=O)Nc2ccc(C3=NCCN3)cc2)cc1)Nc1ccc(C2=NCCN2)cc1 [GW4869]
Aβ fibrillogenesis (ThT fluorescence) by exosomes purified from treated cultures, compared with controls (Aβ): significantly reduced
levels of released exosomes (exosomal markers Alix, Tsg101, GM1 in 100,000×g pellets) [1]: significantly decreased

AV: annexin V, specifically recognizes phosphatidylserine (PS)
uptake of exosomes into BV-2 cells or primary cultured microglia [2]: significantly suppressed
Aβ uptake into microglia [3]: significantly suppressed

CCCCCCCCCCCCC/C=C/[C@@H](O)[C@H](CO)NC(=O)CCCCC [C6-ceramide, N-hexanoyl-D-erythro-sphingosine]
release levels of exosomes (N2a cells; C6-ceramide 50 μM or bacterial SMase 100 μU/ml, 24 hours): significantly increased

nSMase2 siRNA: Stealth RNAi siRNA (Invitrogen) for nSMase2, sense 5′-AAUCGAUGUAGAUCUUGAUCUGAGG-3′ (antisense CCUCAGAUCAAGAUCUACAUCGAUU; commercial Stealth RNAi siRNA, chemistry not given here)
exosome release / secretion after siRNA knockdown (N2a cells): reduced
Aβ fibrillogenesis (ThT fluorescence) by exosomes purified from treated cultures, compared with controls (Aβ): significantly reduced
extracellular Aβ levels (N2a cells and BV-2 cells): unchanged
levels of released exosomes, estimated by the amounts of Alix and Tsg101 (N2a-APP cells): obviously modulated

SMS1 siRNA: Stealth RNAi siRNA (Invitrogen) for SMS1, sense 5′-AUACAUUGUAAUACACCGAUACAGG-3′ (antisense CCUGUAUCGGUGUAUUACAAUGUAU; Commercial Stealth RNAi siRNA, modifications not given here)
exosome release / secretion after siRNA knockdown (N2a cells): significant increases
ratio of amount of Alix compared with a control (N2a cells): 186.02±9.77%

nSMase1 siRNA: Stealth RNAi siRNA (Invitrogen) for nSMase1, sense 5′-AAUAGAACCACAUCUGCAUUCUUGG-3′ (antisense CCAAGAAUGCAGAUGUGGUUCUAUU; Commercial Stealth RNAi siRNA, modifications not given here)
exosome release / secretion after siRNA knockdown (N2a cells): did not change

S=C([S-])OC1CC2CC1C1CCCC21.[K+] (stereo not shown) [D609]
Aβ fibrillogenesis (ThT fluorescence) by exosomes purified from treated cultures, compared with controls (Aβ): increased
levels of released exosomes (exosomal markers Alix, Tsg101, GM1 in 100,000×g pellets) [1]: significant enhancement
